{"source": "ChEMBL document CHEMBL1201862", "about": "“PubChem BioAssay data set” (2004)", "key": {"[1]": {"biological_target": "Voltage-dependent T-type calcium channel subunit alpha-1H (Homo sapiens, UniProt O95180)", "sequence (O95180 whole entry)": "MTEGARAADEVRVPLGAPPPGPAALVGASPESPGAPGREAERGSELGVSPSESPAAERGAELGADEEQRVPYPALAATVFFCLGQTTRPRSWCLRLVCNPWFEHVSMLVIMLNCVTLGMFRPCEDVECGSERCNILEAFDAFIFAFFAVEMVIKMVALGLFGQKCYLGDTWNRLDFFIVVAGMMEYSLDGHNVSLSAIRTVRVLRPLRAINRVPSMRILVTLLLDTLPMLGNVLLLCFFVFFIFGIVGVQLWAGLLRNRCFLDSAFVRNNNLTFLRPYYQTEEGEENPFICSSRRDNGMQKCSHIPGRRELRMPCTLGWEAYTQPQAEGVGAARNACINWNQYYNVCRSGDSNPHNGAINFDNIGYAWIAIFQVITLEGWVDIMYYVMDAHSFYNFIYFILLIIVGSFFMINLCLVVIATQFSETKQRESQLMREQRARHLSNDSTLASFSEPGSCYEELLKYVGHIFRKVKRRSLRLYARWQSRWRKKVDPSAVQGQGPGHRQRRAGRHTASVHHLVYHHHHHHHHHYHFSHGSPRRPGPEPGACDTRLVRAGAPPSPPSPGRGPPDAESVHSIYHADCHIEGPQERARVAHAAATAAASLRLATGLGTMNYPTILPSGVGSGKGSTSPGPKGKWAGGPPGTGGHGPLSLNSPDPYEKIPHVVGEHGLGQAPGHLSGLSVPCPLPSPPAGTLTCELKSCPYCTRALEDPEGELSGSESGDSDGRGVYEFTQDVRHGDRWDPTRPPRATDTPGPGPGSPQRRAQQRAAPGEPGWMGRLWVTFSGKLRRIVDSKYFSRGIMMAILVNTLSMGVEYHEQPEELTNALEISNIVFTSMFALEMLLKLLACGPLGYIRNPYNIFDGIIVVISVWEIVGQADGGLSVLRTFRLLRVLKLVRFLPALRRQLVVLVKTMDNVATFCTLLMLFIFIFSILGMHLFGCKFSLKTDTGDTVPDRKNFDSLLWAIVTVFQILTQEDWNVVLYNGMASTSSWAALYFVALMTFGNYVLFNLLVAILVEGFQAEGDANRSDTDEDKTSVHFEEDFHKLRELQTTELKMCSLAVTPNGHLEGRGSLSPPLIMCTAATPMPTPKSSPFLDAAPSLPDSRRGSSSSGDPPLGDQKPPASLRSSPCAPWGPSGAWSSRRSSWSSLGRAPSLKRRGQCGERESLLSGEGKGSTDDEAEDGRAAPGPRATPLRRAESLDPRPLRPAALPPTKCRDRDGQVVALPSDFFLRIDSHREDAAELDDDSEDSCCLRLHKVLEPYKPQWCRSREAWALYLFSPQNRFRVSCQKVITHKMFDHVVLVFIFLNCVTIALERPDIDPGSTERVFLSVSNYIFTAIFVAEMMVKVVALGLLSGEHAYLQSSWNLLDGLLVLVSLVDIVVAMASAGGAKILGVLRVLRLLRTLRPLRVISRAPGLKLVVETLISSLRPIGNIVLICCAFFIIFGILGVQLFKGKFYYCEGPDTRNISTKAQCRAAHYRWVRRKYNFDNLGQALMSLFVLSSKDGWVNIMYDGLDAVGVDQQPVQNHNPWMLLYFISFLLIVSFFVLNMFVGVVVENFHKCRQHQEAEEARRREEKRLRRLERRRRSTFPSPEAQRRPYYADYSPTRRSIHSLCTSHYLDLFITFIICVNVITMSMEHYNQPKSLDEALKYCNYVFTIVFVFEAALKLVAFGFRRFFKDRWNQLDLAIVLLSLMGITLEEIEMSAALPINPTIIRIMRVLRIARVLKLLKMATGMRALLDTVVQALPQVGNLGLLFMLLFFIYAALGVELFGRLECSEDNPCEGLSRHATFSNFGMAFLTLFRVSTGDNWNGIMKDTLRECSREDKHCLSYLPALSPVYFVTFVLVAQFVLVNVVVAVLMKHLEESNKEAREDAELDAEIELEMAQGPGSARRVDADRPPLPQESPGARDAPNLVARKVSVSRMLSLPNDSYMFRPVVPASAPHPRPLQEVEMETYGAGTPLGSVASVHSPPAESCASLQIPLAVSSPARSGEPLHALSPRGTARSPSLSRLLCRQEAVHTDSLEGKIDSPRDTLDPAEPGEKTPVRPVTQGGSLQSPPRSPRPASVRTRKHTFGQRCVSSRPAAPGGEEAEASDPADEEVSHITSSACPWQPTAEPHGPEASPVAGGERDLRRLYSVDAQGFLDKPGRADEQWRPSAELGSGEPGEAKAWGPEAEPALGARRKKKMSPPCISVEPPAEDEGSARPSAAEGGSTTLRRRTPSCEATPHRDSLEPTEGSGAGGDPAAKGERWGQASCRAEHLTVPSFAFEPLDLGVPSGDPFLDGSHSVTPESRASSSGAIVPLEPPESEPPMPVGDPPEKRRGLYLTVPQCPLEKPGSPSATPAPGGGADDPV", "assay": "Cav3.2 T-type channel inhibitors, cell-based, synthetic library set 1, calcium flux (AID 493022)", "type": "functional"}, "[2]": {"biological_target": "1-acylglycerol-3-phosphate O-acyltransferase ABHD5/Perilipin-5 (Homo sapiens, UniProt Q00G26+Q8WTS1)", "sequence (Q00G26 whole entry, the tested form may be a part)": "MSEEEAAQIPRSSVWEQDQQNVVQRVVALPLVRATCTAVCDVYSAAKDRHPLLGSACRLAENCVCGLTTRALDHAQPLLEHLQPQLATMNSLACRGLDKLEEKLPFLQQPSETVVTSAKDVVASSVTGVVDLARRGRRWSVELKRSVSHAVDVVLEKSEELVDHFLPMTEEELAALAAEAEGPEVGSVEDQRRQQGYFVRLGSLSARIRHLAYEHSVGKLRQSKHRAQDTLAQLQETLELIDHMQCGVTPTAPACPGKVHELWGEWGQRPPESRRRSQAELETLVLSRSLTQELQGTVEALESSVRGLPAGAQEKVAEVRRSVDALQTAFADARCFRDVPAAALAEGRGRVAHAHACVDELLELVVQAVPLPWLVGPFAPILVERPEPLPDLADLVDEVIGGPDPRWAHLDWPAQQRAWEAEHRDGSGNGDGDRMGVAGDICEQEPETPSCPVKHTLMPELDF", "sequence (Q8WTS1 whole entry, the tested form may be a part)": "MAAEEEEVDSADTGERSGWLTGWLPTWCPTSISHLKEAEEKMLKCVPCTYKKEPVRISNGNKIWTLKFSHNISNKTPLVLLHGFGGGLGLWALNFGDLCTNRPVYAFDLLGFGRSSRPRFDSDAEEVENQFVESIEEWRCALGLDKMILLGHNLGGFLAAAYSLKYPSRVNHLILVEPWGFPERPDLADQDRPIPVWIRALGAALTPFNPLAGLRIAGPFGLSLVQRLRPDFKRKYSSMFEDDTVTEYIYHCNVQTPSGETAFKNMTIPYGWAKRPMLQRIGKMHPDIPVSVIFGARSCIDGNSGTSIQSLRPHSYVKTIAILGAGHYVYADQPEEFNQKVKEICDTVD", "assay": "Luminescence-based biochemical high throughput dose response assay for inhibitors of the interaction of the lipase co-activator protein, abhydrolase domain containing 5 (ABHD5) with perilipin-5 (MLDP; PLIN5) (2K validation set). [Related pubchem assays (depositor defined):AID493035, AID493241]"}, "Perilipin-1/ABHD5": {"biological_target": "Perilipin-1/ABHD5 (Homo sapiens, UniProt O60240+Q8WTS1)", "sequence (Q8WTS1 whole entry, the tested form may be a part)": "as above", "sequence (O60240 whole entry, the tested form may be a part)": "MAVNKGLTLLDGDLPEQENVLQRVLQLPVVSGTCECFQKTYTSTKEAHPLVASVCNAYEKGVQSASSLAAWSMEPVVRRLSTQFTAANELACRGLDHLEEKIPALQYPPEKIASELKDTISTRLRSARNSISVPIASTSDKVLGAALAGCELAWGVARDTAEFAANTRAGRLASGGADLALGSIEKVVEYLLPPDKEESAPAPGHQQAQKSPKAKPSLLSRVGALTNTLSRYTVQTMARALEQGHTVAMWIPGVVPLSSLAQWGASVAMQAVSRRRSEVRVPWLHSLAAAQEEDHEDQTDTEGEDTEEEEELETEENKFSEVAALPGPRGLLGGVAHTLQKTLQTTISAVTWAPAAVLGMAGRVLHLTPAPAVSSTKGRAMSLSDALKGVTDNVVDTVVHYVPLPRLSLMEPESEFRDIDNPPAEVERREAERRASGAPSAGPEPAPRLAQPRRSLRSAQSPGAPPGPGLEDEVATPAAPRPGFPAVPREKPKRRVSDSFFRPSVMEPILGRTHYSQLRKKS", "assay": "Luminescence-based biochemical high throughput dose response assay for inhibitors of the interaction of the lipase co-activator protein, abhydrolase domain containing 5 (ABHD5) with perilipin-1 (PLIN1) (2K validation set). [Related pubchem assays (depositor defined):AID493027, AID493057]"}, "Genome polyprotein": {"biological_target": "Genome polyprotein (dengue virus type 2, UniProt P29990)", "assay": "Dengue-2 NS5 methyltransferase inhibitors, primary screen, biochemical, confirmation dose response (AID 588689)", "type": "functional"}, "[3]": {"test_system": "Streptococcus sp. 'group A'", "assay": "growth inhibition of control SK(-) GAS strain, dose response, counter-screen for streptokinase expression inhibitor project, luminescence, kanamycin, BacTiterGlo, confirmation (AID 1900)", "type": "functional, organism-based"}, "Streptococcus": {"test_system": "Streptococcus", "assay": "Group A Streptococcus viability loss, dose response, counter-screen for streptokinase expression inhibitor project, luminescence, BacTiterGlo (AID 1915);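 further: potency for reduction of bacterial viability or growth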", "type": "functional, organism-based"}, "[4]": {"assay": "THP-1 cell cytotoxicity, dose response, cytotoxicity control for non-replicating M. tuberculosis project (AID 489025)", "type": "functional"}, "[5]": {"assay": "Luminescence Cell-Based Dose Retest to Confirm Inhibitors of Cancer Stem Cells. [Related pubchem assays (depositor defined):AID2717, AID2721]", "type": "functional", "settings": "Homo sapiens"}, "[6]": {"assay": "HepG2 cell cytotoxicity, dose response, cytotoxicity control for non-replicating M. tuberculosis project (AID 489018)", "type": "functional", "settings": "Mycobacterium tuberculosis"}, "[7]": {"biological_target": "C-C chemokine receptor type 6 (Homo sapiens, UniProt P51684)", "assay": "CCR6 receptor antagonists, dose response, cell-based, luminescent beta-arrestin readout (AID 504728)", "type": "functional"}, "Beta-galactosidase": {"biological_target": "Beta-galactosidase (Escherichia coli, UniProt Q8VNN2)", "sequence (Q8VNN2 whole entry)": "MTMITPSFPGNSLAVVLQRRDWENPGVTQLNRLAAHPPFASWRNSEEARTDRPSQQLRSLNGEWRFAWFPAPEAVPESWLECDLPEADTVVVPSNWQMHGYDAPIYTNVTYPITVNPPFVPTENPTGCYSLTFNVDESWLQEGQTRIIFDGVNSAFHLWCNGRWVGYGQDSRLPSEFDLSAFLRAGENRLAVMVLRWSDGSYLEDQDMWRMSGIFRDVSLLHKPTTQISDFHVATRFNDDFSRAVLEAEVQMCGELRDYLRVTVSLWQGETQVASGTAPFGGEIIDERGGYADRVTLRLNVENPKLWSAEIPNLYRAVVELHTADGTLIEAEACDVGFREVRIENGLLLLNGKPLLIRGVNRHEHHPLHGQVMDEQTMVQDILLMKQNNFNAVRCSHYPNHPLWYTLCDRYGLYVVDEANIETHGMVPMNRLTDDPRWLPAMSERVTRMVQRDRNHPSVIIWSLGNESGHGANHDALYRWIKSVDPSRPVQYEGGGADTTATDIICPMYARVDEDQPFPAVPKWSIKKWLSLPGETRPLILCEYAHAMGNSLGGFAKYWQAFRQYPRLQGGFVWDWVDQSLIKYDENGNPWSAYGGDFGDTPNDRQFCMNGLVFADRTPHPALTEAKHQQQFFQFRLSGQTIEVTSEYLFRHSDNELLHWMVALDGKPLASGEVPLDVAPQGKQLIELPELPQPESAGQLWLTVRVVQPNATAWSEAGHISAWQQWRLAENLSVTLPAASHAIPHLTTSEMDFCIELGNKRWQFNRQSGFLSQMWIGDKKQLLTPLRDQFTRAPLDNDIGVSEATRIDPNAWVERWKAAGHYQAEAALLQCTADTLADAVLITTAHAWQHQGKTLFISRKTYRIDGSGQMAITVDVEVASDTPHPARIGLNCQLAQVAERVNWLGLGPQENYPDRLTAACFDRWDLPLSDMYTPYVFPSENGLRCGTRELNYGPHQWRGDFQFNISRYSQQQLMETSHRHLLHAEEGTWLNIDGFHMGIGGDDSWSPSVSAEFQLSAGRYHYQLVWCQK", "assay": "beta-galactosidase enzyme inhibitors and activators, dose response, artefact control for CCR6 antagonist project, biochemical, E. coli enzyme, set 3 (AID 504712)", "type": "functional"}, "[8]": {"assay": "Vero E6 cell cytotoxicity, dose response, cytotoxicity control for non-replicating M. tuberculosis project, secondary assay (AID 492998)", "type": "functional, VeroE6", "settings": "Vero C1008"}, "cells": {"assay": "cells", "type": "functional"}}, "note": "Activity calls are given as the source filed them.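 Wherever AC50 is given: cells exposed to compound for roughly 70 hours or longer before luminescence read.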", "data": [{"compound": "O=C(COc1ccccc1F)Nc1nnc(-c2ccc3c(c2)OCO3)o1", "values": [{"measurement": "EC50", "setting": "[1]", "value": "10 µM (active)"}]}, {"compound": "CCOc1ccc(N2C(=O)NC(=O)/C(=C\\c3cc(OC)c(OC)cc3[N+](=O)[O-])C2=O)cc1", "values": [{"measurement": "IC50", "setting": "[2]", "value": "2.8 µM (active)"}, {"measurement": "IC50", "setting": "Perilipin-1/ABHD5", "value": "2.21 µM (active)"}, {"measurement": "IC50", "setting": "Genome polyprotein", "value": "27.6 µM (active)"}]}, {"compound": "Cc1cc(NCc2ccccn2)n2nc(C)c(-c3ccc(Cl)cc3)c2n1", "values": [{"measurement": "EC50", "setting": "[3]", "value": "2.89 µM (active)"}, {"measurement": "EC50", "setting": "Streptococcus", "value": "6.9 µM (active)"}, {"measurement": "CC50", "setting": "[4]", "value": "6.61 µM (active)"}, {"measurement": "AC50", "setting": "[5]", "value": "3.86 µM (active)"}, {"measurement": "CC50", "setting": "[6]", "value": "3.6 µM (active)"}, {"measurement": "IC50", "setting": "[7]", "value": "> 66.6 µM (inactive)"}, {"measurement": "IC50", "setting": "Beta-galactosidase", "value": "> 66.6 µM (inactive)"}, {"measurement": "CC50", "setting": "[8]", "value": "15.1 µM (active)"}, {"measurement": "IC50", "setting": "cells", "value": "2.1 µM (active)"}]}]}
